Measured values as given in the supplement of paper PMC13380429.

What was measured:
Details in all cases: 72 h
Caco-2 [1] = assay: cell viability relative to DMSO; higher = less toxic
Calu-3 [2] = assay: as above
HepG2 [3] = assay: as above
U2OS [4] = assay: as above
Vero E6 [5] = assay: as above
Caco-2 [6] = assay: relative viability EC50 (midpoint between 100% and the lowest measured viability); higher = less toxic
Calu-3 [7] = assay: as above
HepG2 [8] = assay: as above
U2OS [9] = assay: as above
Vero E6 [10] = assay: as above
Caco-2 [11] = assay: drug sensitivity score (DSS) for viability; higher = more toxic; extreme values may be limits of the assay
Calu-3 [12] = assay: as above
HepG2 [13] = assay: as above
U2OS [14] = assay: as above
Vero E6 [15] = assay: as above

SMILES | cell viability (Caco-2 [1]; 1 nM) [%] | cell viability (Caco-2 [1]; 10 nM) [%] | cell viability (Caco-2 [1]; 100 nM) [%] | cell viability (Caco-2 [1]; 1000 nM) [%] | cell viability (Caco-2 [1]; 10000 nM) [%] | cell viability (Calu-3 [2]; 1 nM) [%] | cell viability (Calu-3 [2]; 10 nM) [%] | cell viability (Calu-3 [2]; 100 nM) [%] | cell viability (Calu-3 [2]; 1000 nM) [%] | cell viability (Calu-3 [2]; 10000 nM) [%] | cell viability (HepG2 [3]; 1 nM) [%] | cell viability (HepG2 [3]; 10 nM) [%] | cell viability (HepG2 [3]; 100 nM) [%] | cell viability (HepG2 [3]; 1000 nM) [%] | cell viability (HepG2 [3]; 10000 nM) [%] | cell viability (U2OS [4]; 1 nM) [%] | cell viability (U2OS [4]; 10 nM) [%] | cell viability (U2OS [4]; 100 nM) [%] | cell viability (U2OS [4]; 1000 nM) [%] | cell viability (U2OS [4]; 10000 nM) [%] | cell viability (Vero E6 [5]; 1 nM) [%] | cell viability (Vero E6 [5]; 10 nM) [%] | cell viability (Vero E6 [5]; 100 nM) [%] | cell viability (Vero E6 [5]; 1000 nM) [%] | cell viability (Vero E6 [5]; 10000 nM) [%] | relative viability EC50 (Caco-2 [6]) [µM] | relative viability EC50 (Calu-3 [7]) [µM] | relative viability EC50 (HepG2 [8]) [µM] | relative viability EC50 (U2OS [9]) [µM] | relative viability EC50 (Vero E6 [10]) [µM] | drug sensitivity score (Caco-2 [11]) | drug sensitivity score (Calu-3 [12]) | drug sensitivity score (HepG2 [13]) | drug sensitivity score (U2OS [14]) | drug sensitivity score (Vero E6 [15])
C[C@H](Nc1cc(-c2cnn(C)c2)cc(Nc2cnccn2)n1)c1ccc(F)cc1 [NS-018] | 99.1 | 102 | 104 | 83.6 | 32 | 96.4 | 89.1 | 91.9 | 62.7 | 42 | 101 | 102 | 102 | 75.6 | 3.1 | 97.6 | 95.1 | 100 | 87.6 | 26.4 | 106 | 100 | 99.7 | 83.4 | 14.5 | 1.58 | 0.517 | 1.54 | 1.88 | 1.76 | 6.3 | 8.1 | 9.1 | 6.1 | 7.4
CN[C@H](CNC(=O)N1CCC[C@@H]([C@@H](OCCNC(=O)OC)c2cccc(Cl)c2)C1)C[C@H]1CCCOC1 | 98.2 | 96.1 | 97.1 | 90.1 | 94.5 | 103 | 96.2 | 102 | 102 | 98.1 | 101 | 108 | 92.5 | 98.6 | 95 | 97.3 | 98.1 | 106 | 97.7 | 99.1 | 101 | 101 | 98.4 | 107 | 98.5 | > 10 | > 10 | > 10 | > 10 | > 10 | 0 | 0 | 0 | 0 | 0
Nc1nc(=O)c2nc(CNc3ccc(C(=O)N[C@@H](CCC(=O)O)C(=O)O)cc3)cnc2[nH]1 [folic-acid] | 89.2 | 103 | 101 | 95.3 | 90.7 | 93.5 | 102 | 88.1 | 106 | 97.8 | 106 | 101 | 99.8 | 97.2 | 99.4 | 97.7 | 101 | 97 | 99.4 | 96.4 | 99.9 | 102 | 97 | 101 | 92.8 | > 10 | > 10 | > 10 | > 10 | > 10 | 0 | 0 | 0 | 0 | 0
O=C(NCc1ccc(OC(F)(F)F)cc1)C1c2ccccc2C(=O)N1C1CCOCC1 (stereo not given) [NAV-26] | 100 | 90.6 | 105 | 96.8 | 99.2 | 103 | 97.6 | 93.8 | 99.5 | 100 | 107 | 91.6 | 96.7 | 112 | 112 | 99.3 | 94.5 | 99 | 95.9 | 91 | 95.7 | 101 | 88.7 | 98.9 | 107 | > 10 | > 10 | > 10 | > 10 | > 10 | 0 | 0 | 0 | 0 | 0
CNC[C@H](O)c1cccc(O)c1 [phenylephrine] | 99.2 | 91 | 96.4 | 92.4 | 99.7 | 103 | 92.5 | 95.7 | 98.9 | 97.5 | 98.7 | 101 | 99.1 | 93.5 | 111 | 98.9 | 96.1 | 98.9 | 102 | 101 | 96.6 | 99.7 | 95.6 | 93.5 | 102 | > 10 | > 10 | > 10 | > 10 | > 10 | 0 | 0 | 0 | 0 | 0
CC(C)(C)c1cc(C=C(C#N)C#N)cc(Br)c1O [AG-1024] | 98.8 | 96.8 | 101 | 93.3 | 77.4 | 104 | 92.4 | 92 | 87.8 | 100 | 102 | 110 | 109 | 119 | 79.8 | 105 | 106 | 102 | 96.4 | 99.2 | 102 | 96.8 | 98.1 | 94.8 | 92.4 | > 10 | > 10 | > 10 | > 10 | > 10 | 1.7 | 0 | 0.3 | 0 | 0
CC1=C(C)C(=O)C(C(CCCCCC(=O)O)c2ccccc2)=C(C)C1=O (stereo not given) [seratrodast] | 91 | 92.7 | 104 | 90.4 | 95.3 | 104 | 91 | 99 | 99.2 | 104 | 98.7 | 98.7 | 101 | 98.1 | 103 | 99.8 | 95.7 | 99.6 | 93.2 | 98.5 | 97.7 | 99.5 | 96.4 | 96.9 | 98.2 | > 10 | > 10 | > 10 | > 10 | > 10 | 0 | 0 | 0 | 0 | 0
